Laboratory results published in ChEMBL document CHEMBL5634090, “Design of phenothiazine-based cationic amphiphilic derivatives incorporating arginine residues: Potential membrane-active broad-spectrum antimicrobials combating pathogenic bacteria in vitro and in vivo” (Eur J Med Chem, 2023).
≈ marks a conversion by molar mass, not a printed value.

How the values were obtained:
Staphylococcus aureus [1] = experiment: Antibacterial activity against Staphylococcus aureus ATCC 29213 by microbroth dilution assay; format: functional
Staphylococcus aureus [2] = experiment: Antibacterial activity against methicillin resistant Staphylococcus aureus N315 by microbroth dilution assay; format: functional
Staphylococcus aureus [3] = experiment: Antibacterial activity against methicillin resistant Staphylococcus aureus NCTC 10442 by microbroth dilution assay; format: functional
Escherichia coli = experiment: Antibacterial activity against Escherichia coli ATCC 25922 by microbroth dilution assay; format: functional
[4] = Hemolytic activity in rabbit erythrocytes; format: toxicity, cell-based, Oryctolagus cuniculus, Erythrocyte
Klebsiella pneumoniae [5] = experiment: Antibacterial activity against Klebsiella pneumoniae ATCC 10031 by microbroth dilution assay; format: functional
Klebsiella pneumoniae [6] = experiment: Antibacterial activity against Klebsiella pneumoniae ATCC 14581 by microbroth dilution assay; format: functional
Pseudomonas aeruginosa = experiment: Antibacterial activity against Pseudomonas aeruginosa ATCC 9027 by microbroth dilution assay; format: functional
Klebsiella pneumoniae [7] = experiment: Antibacterial activity against Klebsiella pneumoniae ATCC 10031 assessed as log reduction in bacterial load at 8 times MIC measured after 2 hrs by time kill assay; format: functional
Klebsiella pneumoniae [8] = experiment: Induction of resistance development in Klebsiella pneumoniae ATCC 10031 assessed as fold increase in MIC treated over 20 serial passages by microdilution assay; format: functional
Staphylococcus aureus [9] = experiment: Inhibition of biofilm formation in Staphylococcus aureus ATCC 29213 at MIC by crystal violet staining assay relative to control; format: functional
Klebsiella pneumoniae [10] = experiment: Inhibition of biofilm formation in Klebsiella pneumoniae ATCC 10031 at MIC by crystal violet staining assay relative to control; format: functional
Staphylococcus aureus [11] = experiment: Antibiofilm activity against 24 hrs preformed biofilm in Staphylococcus aureus ATCC 29213 assessed as residual biomass at 4 times MIC relative to control; format: functional
Klebsiella pneumoniae [12] = experiment: Antibiofilm activity against 24 hrs preformed biofilm in Klebsiella pneumoniae ATCC 10031 assessed as residual biomass at 4 times MIC relative to control; format: functional
Staphylococcus aureus [13] = experiment: Induction of resistance development in Staphylococcus aureus ATCC 29213 assessed as fold increase in MIC treated over 20 serial passages by microdilution assay; format: functional

| Compound | MIC (Staphylococcus aureus [1]) [µg/mL] | MIC (Staphylococcus aureus [2]) [µg/mL] | MIC (Staphylococcus aureus [3]) [µg/mL] | MIC (Escherichia coli) [µg/mL] | HC50 [4] [µg/mL] | further results |
| --- | --- | --- | --- | --- | --- | --- |
| CCCCCOc1ccc2c(c1)N(CCCCCCN(CC)CC)c1ccccc1S2 | 3.12 (≈ 7.09 µM) | 1.56 (≈ 3.54 µM) | 3.12 (≈ 7.09 µM) | > 50 | > 200 |  |
| CCCCCCCN1c2ccccc2Sc2ccc(OCC(=O)OCC)cc21 | > 50 | > 50 | > 50 | > 50 | > 200 |  |
| CCCCCCCOc1ccc2c(c1)Nc1ccccc1S2 | > 50 | > 50 | > 50 | > 50 | > 200 |  |
| CCCCCCCCCN1c2ccccc2Sc2ccc(OCC(=O)N[C@@H](CCCNC(=N)N)C(=O)N[C@@H](CCCNC(=N)N)C(=O)OC)cc21 | 1.56 (≈ 2.15 µM) | 1.56 (≈ 2.15 µM) | 1.56 (≈ 2.15 µM) | 1.56 (≈ 2.15 µM) | > 200 | MIC (Klebsiella pneumoniae [5]): 3.12 µg/mL (≈ 4.3 µM); MIC (Klebsiella pneumoniae [6]): 6.25 µg/mL (≈ 8.61 µM); MIC (Pseudomonas aeruginosa): 50 µg/mL (≈ 68.9 µM) |
| CCCCCCCN1c2ccccc2Sc2ccc(OCC(=O)N[C@@H](CCCNC(=N)N)C(=O)N[C@@H](CCCNC(=N)N)C(=O)OC)cc21 | 1.56 (≈ 2.24 µM) | 1.56 (≈ 2.24 µM) | 1.56 (≈ 2.24 µM) | 6.25 (≈ 8.96 µM) | > 200 | MIC (Klebsiella pneumoniae [5]): 25 µg/mL (≈ 35.8 µM); MIC (Klebsiella pneumoniae [6]): 25 µg/mL (≈ 35.8 µM); MIC (Pseudomonas aeruginosa): > 50 µg/mL |
| CCCCCCCCCN1c2ccccc2Sc2ccc(OCC(=O)N[C@@H](CCCNC(=N)N)C(=O)N[C@@H](CCCNC(=N)N)C(N)=O)cc21 | 1.56 (≈ 2.19 µM) | 1.56 (≈ 2.19 µM) | 0.78 (≈ 1.1 µM) | 1.56 (≈ 2.19 µM) | > 200 | MIC (Klebsiella pneumoniae [5]): 3.12 µg/mL (≈ 4.4 µM); MIC (Klebsiella pneumoniae [6]): 3.12 µg/mL (≈ 4.4 µM); MIC (Pseudomonas aeruginosa): > 50 µg/mL |
| CC(C)=CCOc1ccc2c(c1)N(CCCCNC(=N)N)c1ccccc1S2 | 1.56 (≈ 3.93 µM) | 0.78 (≈ 1.97 µM) | 0.78 (≈ 1.97 µM) | > 50 | > 200 |  |
| CCCCCOc1ccc2c(c1)N(CCCCN)c1ccccc1S2 | 3.12 (≈ 8.76 µM) | 3.12 (≈ 8.76 µM) | 3.12 (≈ 8.76 µM) | 25 (≈ 70.1 µM) | > 200 |  |
| CCCCCN1c2ccccc2Sc2ccc(OCC(=O)N[C@@H](CCCNC(=N)N)C(=O)OC)cc21 | 12.5 (≈ 24.3 µM) | 3.12 (≈ 6.08 µM) | 6.25 (≈ 12.2 µM) | > 50 | > 200 |  |
| CCCCCOc1ccc2c(c1)N(CCCCCCNC(=N)N)c1ccccc1S2 | 1.56 (≈ 3.66 µM) | 1.56 (≈ 3.66 µM) | 1.56 (≈ 3.66 µM) | > 50 | > 200 |  |
| CCCCCCCCCN1c2ccccc2Sc2ccc(OCC(=O)OCC)cc21 | > 50 | > 50 | > 50 | > 50 | > 200 |  |
| CC(C)=CCOc1ccc2c(c1)N(CCCCN)c1ccccc1S2 | 6.25 (≈ 17.6 µM) | 6.25 (≈ 17.6 µM) | 6.25 (≈ 17.6 µM) | > 50 | > 200 |  |
| O=C(O)c1cn(C2CC2)c2cc(N3CCNCC3)c(F)cc2c1=O [CIPROFLOXACIN] |  |  |  |  |  | MIC (Klebsiella pneumoniae [5]): 0.195 µg/mL (≈ 0.589 µM); MIC (Klebsiella pneumoniae [6]): 0.195 µg/mL (≈ 0.589 µM); MIC (Pseudomonas aeruginosa): 0.195 µg/mL (≈ 0.589 µM); log(activity) (Klebsiella pneumoniae [7]): 2.27; fold change (FC) (Klebsiella pneumoniae [8]): 128 |
| CCCCCOc1ccc2c(c1)N(CCCCNC(=N)N)c1ccccc1S2 | 1.56 (≈ 3.91 µM) | 1.56 (≈ 3.91 µM) | 1.56 (≈ 3.91 µM) | 6.25 (≈ 15.7 µM) | > 200 | MIC (Klebsiella pneumoniae [5]): 6.25 µg/mL (≈ 15.7 µM); MIC (Klebsiella pneumoniae [6]): 25 µg/mL (≈ 62.7 µM); MIC (Pseudomonas aeruginosa): > 50 µg/mL |
| CCCCCOc1ccc2c(c1)N(CCCCCCN)c1ccccc1S2 | 3.12 (≈ 8.13 µM) | 1.56 (≈ 4.06 µM) | 1.56 (≈ 4.06 µM) | > 50 | > 200 |  |
| CCCCCCCOc1ccc2c(c1)N(CCCCN)c1ccccc1S2 | 3.12 (≈ 8.13 µM) | 1.56 (≈ 4.06 µM) | 3.12 (≈ 8.13 µM) | > 50 | > 200 |  |
| CCCCCN1c2ccccc2Sc2ccc(OCC(=O)OCC)cc21 | > 50 | > 50 | > 50 | > 50 | > 200 |  |
| CC[C@H](C)[C@H](NC(=O)CN)C(=O)NCC(=O)N[C@@H](C)C(=O)N[C@H](C(=O)N[C@@H](CC(C)C)C(=O)N[C@@H](CCCCN)C(=O)N[C@H](C(=O)N[C@@H](CC(C)C)C(=O)N[C@H](C(=O)N[C@H](C(=O)NCC(=O)N[C@@H](CC(C)C)C(=O)N1CCC[C@H]1C(=O)N[C@@H](C)C(=O)N[C@@H](CC(C)C)C(=O)N[C@H](C(=O)N[C@@H](CO)C(=O)N[C@@H](Cc1c[nH]c2ccccc12)C(=O)N[C@H](C(=O)N[C@@H](CCCCN)C(=O)N[C@@H](CCCNC(=N)N)C(=O)N[C@@H](CCCCN)C(=O)N[C@@H](CCCNC(=N)N)C(=O)N[C@@H](CCC(N)=O)C(=O)N[C@@H](CCC(N)=O)C(N)=O)[C@@H](C)CC)[C@@H](C)CC)[C@@H](C)O)[C@@H](C)O)C(C)C)C(C)C [MELITTIN] |  |  |  |  |  | MIC (Klebsiella pneumoniae [5]): 6.25 µg/mL (≈ 2.2 µM); MIC (Klebsiella pneumoniae [6]): 6.25 µg/mL (≈ 2.2 µM); inhibition (INH) (Staphylococcus aureus [9]): >90%; inhibition (INH) (Klebsiella pneumoniae [10]): >90%; Activity (Staphylococcus aureus [11]): >10%; Activity (Klebsiella pneumoniae [12]): <10% |
| CCCCCCCN1c2ccccc2Sc2ccc(OCC(=O)N[C@@H](CCCNC(=N)N)C(=O)N[C@@H](CCCNC(=N)N)C(=O)N[C@@H](CCCNC(=N)N)C(=O)OC)cc21 | 0.78 (≈ 0.913 µM) | 0.78 (≈ 0.913 µM) | 0.78 (≈ 0.913 µM) | 12.5 (≈ 14.6 µM) | > 200 |  |

| Compound | MIC (Staphylococcus aureus [1]) [µg/mL] | MIC (Staphylococcus aureus [2]) [µg/mL] | MIC (Staphylococcus aureus [3]) [µg/mL] | MIC (Escherichia coli) [µg/mL] | HC50 [4] [µg/mL] | further results |
| --- | --- | --- | --- | --- | --- | --- |
| CCCCCCCOc1ccc2c(c1)N(CCCCNC(=N)N)c1ccccc1S2 | 3.12 (≈ 7.32 µM) | 0.78 (≈ 1.83 µM) | 0.78 (≈ 1.83 µM) | > 50 | > 200 |  |
| CCCCCOc1ccc2c(c1)N(CCCCCCCCN(CC)CC)c1ccccc1S2 | 3.12 (≈ 6.67 µM) | 3.12 (≈ 6.67 µM) | 3.12 (≈ 6.67 µM) | > 50 | > 200 |  |
| CCCCCN1c2ccccc2Sc2ccc(OCC(=O)N[C@@H](CCCNC(=N)N)C(=O)N[C@@H](CCCNC(=N)N)C(=O)OC)cc21 | 6.25 (≈ 9.33 µM) | 3.12 (≈ 4.67 µM) | 6.25 (≈ 9.33 µM) | > 50 | > 200 |  |
| CCCCCOc1ccc2c(c1)N(CCCN)c1ccccc1S2 | 3.12 (≈ 9.12 µM) | 3.12 (≈ 9.12 µM) | 3.12 (≈ 9.12 µM) | 25 (≈ 73 µM) | > 200 |  |
| CCCCCOc1ccc2c(c1)N(CCCCCCCCNC(=N)N)c1ccccc1S2 | 1.56 (≈ 3.43 µM) | 1.56 (≈ 3.43 µM) | 1.56 (≈ 3.43 µM) | > 50 | > 200 |  |
| CCCCCOc1ccc2c(c1)N(CCCCCCCCN)c1ccccc1S2 | 3.12 (≈ 7.57 µM) | 3.12 (≈ 7.57 µM) | 3.12 (≈ 7.57 µM) | > 50 | > 200 |  |
| CC(C)=CCOc1ccc2c(c1)Nc1ccccc1S2 | > 50 | > 50 | > 50 | > 50 | > 200 |  |
| CCCCCCCCCN1c2ccccc2Sc2ccc(OCC(=O)N[C@@H](CCCNC(=N)N)C(=O)N[C@@H](CCCNC(=N)N)C(=O)N[C@@H](CCCNC(=N)N)C(=O)OC)cc21 | 1.56 (≈ 1.77 µM) | 0.78 (≈ 0.884 µM) | 1.56 (≈ 1.77 µM) | 3.12 (≈ 3.54 µM) | > 200 | MIC (Klebsiella pneumoniae [5]): 12.5 µg/mL (≈ 14.2 µM); MIC (Klebsiella pneumoniae [6]): 12.5 µg/mL (≈ 14.2 µM); MIC (Pseudomonas aeruginosa): 12.5 µg/mL (≈ 14.2 µM) |
| CCCCCCCCCOc1ccc2c(c1)N(CCCCNC(=N)N)c1ccccc1S2 | 3.12 (≈ 6.87 µM) | 1.56 (≈ 3.43 µM) | 1.56 (≈ 3.43 µM) | > 50 | > 200 |  |
| CC1(C)S[C@@H]2[C@H](NC(=O)[C@H](N)c3ccc(O)cc3)C(=O)N2[C@H]1C(=O)O [AMOXICILLIN] |  |  |  | 6.25 (≈ 17.1 µM) |  |  |
| CCOC(=O)COc1ccc2c(c1)Nc1ccccc1S2 | > 50 | > 50 | > 50 | > 50 | > 200 |  |
| CCCCCCCCCOc1ccc2c(c1)N(CCCCN)c1ccccc1S2 | 3.12 (≈ 7.57 µM) | 3.12 (≈ 7.57 µM) | 3.12 (≈ 7.57 µM) | > 50 | > 200 |  |
| CCCCCOc1ccc2c(c1)N(CCCNC(=N)N)c1ccccc1S2 | 1.56 (≈ 4.06 µM) | 1.56 (≈ 4.06 µM) | 0.78 (≈ 2.03 µM) | > 50 | > 200 |  |
| Oc1ccc2c(c1)Nc1ccccc1S2 | > 50 | > 50 | > 50 | > 50 | > 200 |  |
| CCCCCOc1ccc2c(c1)Nc1ccccc1S2 | > 50 | > 50 | > 50 | > 50 | > 200 |  |
| CCCCCCCCCOc1ccc2c(c1)Nc1ccccc1S2 | > 50 | > 50 | > 50 | > 50 | > 200 |  |
| CCCCCOc1ccc2c(c1)N(CCCCN(CC)CC)c1ccccc1S2 | 6.25 (≈ 15.1 µM) | 3.12 (≈ 7.57 µM) | 3.12 (≈ 7.57 µM) | > 50 | > 200 |  |
| CCn1cc(C(=O)O)c(=O)c2cc(F)c(N3CCNCC3)cc21 [NORFLOXACIN] | 1.56 (≈ 4.89 µM) |  |  |  |  | fold change (FC) (Staphylococcus aureus [13]): 1024 |
| COc1ccc2c(c1)Nc1ccccc1S2 | > 50 | > 50 | > 50 | > 50 | > 200 |  |
